Laboratory results reported in PMC7651859, “Identification of 6-amino-1H-pyrazolo[3,4-d]pyrimidines with in vivo efficacy against visceral leishmaniasis” (RSC Medicinal Chemistry, 2020).
In brackets after ≈: the same amount, converted by molar mass. Read-outs that look alike come from different tables or passages of the source.

Tests used:
THP-1 cells = experiment: THP-1 host cell toxicity readout of the Ld InMac assay; assay type: cell-based; conditions: Homo sapiens; host THP-1 cells; mean of n ≥ 3; read-out: THP-1 pEC50 (converted)
From the text: (§1) For the identification of DDD853651/GSK3186899, which contained a trans-1,4-cyclohexyldiamine, a key strategy was to optimise the balance between potency in the intracellular Leishmania assay (L. donovani in THP-1 cells, referred to as Ld InMac assay[9]) and solubility.[10] In that case, we focused on 2 (Table 1), where the sulfonamide was required for potency but was poorly soluble. […] To this end, we examined a 4-aminopiperidine central unit with both sulfonamide and amide substituents (Table 1). […] We therefore selected 4 as a suitable start-point for further chemistry. […] We noted that either lengthening the linker to the aromatic ring, or removing it, led to a loss of activity (6 and 7 respectively).
(§2) Intramacrophage Leishmania donovani Assay

[1] = CAD kinetic aqueous solubility; assay type: physicochemical; conditions: pH 7.4, pH7.4 phosphate buffered saline
Experimental: CAD Aqueous Solubility 11
5µl of 10mM DMSO stock solution is diluted to 100 µ l with pH7.4 phosphate buffered saline,
equilibrated for 1 hour at room temperature and filtered through Millipore MultiscreenHTS-PCF

L. donovani amastigotes = experiment: Ld InMac intramacrophage Leishmania donovani assay; assay type: cell-based; conditions: Leishmania donovani; L. donovani amastigotes in THP-1 cells; mean of n ≥ 3; read-out: Ld InMac pEC50 (converted)
From the text: as §1, §2

FaSSIF solubility = assay type: physicochemical; conditions: fasted state simulated intestinal fluid (FaSSIF)
[2] = Stability in mouse liver microsomes (intrinsic clearance); assay type: in vitro ADME; conditions: mouse liver microsomal intrinsic clearance, 0.5 μM
Experimental: Stability in Microsomes 10
Test compound (0.5 μM) was incubated with female CD1 mouse (Xenotech) liver microsomes and their action started with addition of excess NADPH (8 mg/mL 50 mM potassium phosphate buffer, pH 7.4). Immediately, at time zero, then at 3, 6, 9, 15, and 30 min, an aliquot (50 μL) of the incubation mixture was removed and mixed with acetonitrile (100 μL) to stop the reaction.
Internal standard was added to all samples, the samples centrifuged to sediment precipitated protein, and the plates then sealed prior to UPLC-MS/MS analysis using a Xevo TQs micro (Waters Corporation, USA). XLfit (IDBS, UK) was used to calculate the exponential decay and consequently the rate constant (k) from the ratio of the peak area of test compound to internal standard at each time point. The rate of intrinsic clearance (Cl i) of each test compound was then calculated using the equation Cl i (mL/min/g liver) = k × V × microsomal protein yield, where V (mL/mg protein) is the incubation volume/mg protein added and […]
microsomal protein yield is taken as 52.5 mg protein/g liver. Verapamil (0.5 μM) was used as a positive control to confirm acceptable assay performance. […]

[3] = Aqueous solubility, values marked with ref 12; assay type: physicochemical; conditions: values marked [12] in the table (method of ref 12, not CAD)
p38α MAPK = p38α MAPK (Homo sapiens, UniProt Q16539); experiment: Human kinase panel, p38α MAPK; assay type: biochemical; conditions: panel of 140 human kinases
p38α MAPK, sequence (Q16539 whole entry): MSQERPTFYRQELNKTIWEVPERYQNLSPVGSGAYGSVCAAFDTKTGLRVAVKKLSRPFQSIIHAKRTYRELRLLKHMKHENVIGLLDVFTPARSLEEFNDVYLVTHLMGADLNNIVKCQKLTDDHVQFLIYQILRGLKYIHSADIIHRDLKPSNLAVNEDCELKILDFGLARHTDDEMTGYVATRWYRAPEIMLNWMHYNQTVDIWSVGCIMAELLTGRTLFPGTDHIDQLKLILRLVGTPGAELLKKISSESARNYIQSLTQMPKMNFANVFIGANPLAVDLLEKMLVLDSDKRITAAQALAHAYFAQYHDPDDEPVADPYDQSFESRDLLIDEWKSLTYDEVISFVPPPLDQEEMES
From the text: (§3) From this, only 4 kinases were inhibited at >40% (ERK8 [extracellular signal-regulated kinases], p38α and p38β MAPK [mitogen-activated protein kinases] and CDK2 [cyclin dependant kinase]).

L. donovani = experiment: Mouse efficacy model of VL; assay type: in vivo; conditions: for % Suppression of parasite load: liver load
Experimental: page 37: microsomal protein yield is taken as 52.5 mg protein/g liver. Verapamil (0.5 μM) was used as a positive control to confirm acceptable assay performance. In Vivo Efficacy Studies 10 Groups of female BALB/c mice (5 per group) were inoculated intravenously with approximately […] L. donovani amastigotes (LV9; WHO designation: MHOM/ET/67/HU3) harvested from the spleen of an infected hamster. From day 7 post infection, groups of mice were treated with either drug vehicle only (orally), with control drugs Miltefosine 30 mg/kg orally and Pentostam 15 mg/kg subcutaneously (only in compound 48 efficacy experiment) or with test compound at the appropriate dose. Miltefosine and Pentostam were dosed once daily for 5 days and test compounds were dosed twice daily for 5 days. Drug dosing solutions were prepared fresh each day and the vehicle was deionized water for Miltefosine and Pentostam, or 0.5% HPMC, 0.4% Tween 80, and 0.5% benzyl alcohol for test compounds. On day 14 all animals were humanely euthanized, liver smears made, and parasite burdens determined by counting the number of amastigotes/500 liver cells. Parasite burden is expressed in Leishman−Donovan units (LDU): the number of amastigotes per 500 nucleated cells multiplied by the organ weight in milligrams. S-37

p38β MAPK = p38β MAPK (Homo sapiens, UniProt Q15759); experiment: Human kinase panel and IC50, p38β MAPK; assay type: biochemical
p38β MAPK, sequence (Q15759 whole entry): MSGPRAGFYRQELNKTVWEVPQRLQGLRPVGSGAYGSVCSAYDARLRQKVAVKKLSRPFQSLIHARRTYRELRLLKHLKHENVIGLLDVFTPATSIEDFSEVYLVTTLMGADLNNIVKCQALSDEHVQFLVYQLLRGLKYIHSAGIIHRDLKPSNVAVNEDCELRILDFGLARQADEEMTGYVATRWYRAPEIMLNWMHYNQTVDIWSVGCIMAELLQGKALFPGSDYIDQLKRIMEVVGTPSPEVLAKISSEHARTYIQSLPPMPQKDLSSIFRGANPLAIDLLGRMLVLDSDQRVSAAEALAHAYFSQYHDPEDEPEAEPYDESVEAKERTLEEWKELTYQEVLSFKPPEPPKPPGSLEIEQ
From the text: as §3

[4] = Oral pharmacokinetics in Balb-c mice; assay type: in vivo; conditions: mouse, blood, female Balb-c mice, 100 mg kg^–1
From the text: On this basis, 48 and 50 were progressed into orally dosed pharmacokinetic studies in female Balb-c mice (Table 6), with both having sufficient Cmax (the highest concentration of a drug in the blood) and AUC (area under the curve) to progress into the previously reported mouse efficacy model of VL.[10]

ERK8 = molecular target: T1, ERK8 (Homo sapiens, UniProt Q8TD08); experiment: Human kinase panel and IC50, ERK8; assay type: biochemical
T1 sequence (Q8TD08 1-544): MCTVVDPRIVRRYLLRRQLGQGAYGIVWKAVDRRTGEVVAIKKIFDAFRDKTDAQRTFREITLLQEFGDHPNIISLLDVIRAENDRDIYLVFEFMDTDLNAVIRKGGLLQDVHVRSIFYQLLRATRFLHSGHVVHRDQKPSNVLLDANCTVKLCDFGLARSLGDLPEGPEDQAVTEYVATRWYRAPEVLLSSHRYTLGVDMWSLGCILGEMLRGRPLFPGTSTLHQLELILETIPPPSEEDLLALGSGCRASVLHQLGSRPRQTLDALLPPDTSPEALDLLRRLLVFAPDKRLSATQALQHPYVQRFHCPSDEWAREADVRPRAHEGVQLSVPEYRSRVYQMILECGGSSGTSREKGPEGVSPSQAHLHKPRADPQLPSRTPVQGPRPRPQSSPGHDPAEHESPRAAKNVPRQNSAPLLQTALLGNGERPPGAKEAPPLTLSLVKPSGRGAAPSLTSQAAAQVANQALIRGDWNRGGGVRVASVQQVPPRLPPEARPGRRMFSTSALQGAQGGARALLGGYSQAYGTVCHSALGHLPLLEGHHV
From the text: as §3

CDK2 = CDK2 (Homo sapiens, UniProt P24941); experiment: Human kinase panel, CDK2; assay type: biochemical; conditions: panel of 140 human kinases
From the text: as §3

[5] = Rat dose-escalation PK study; assay type: in vivo
[6] = 10 μM, panel of 140 human kinases
[7] = dose increased from 100 to 300 mg kg^–1

COc1ccccc1-c1n[nH]c2nc(NC3CCN(C(=O)Cc4ccc(F)cc4F)CC3)ncc12 [Compound 20]
EC50 (THP-1 cells): 39800 nM
solubility at 1 h [1]: < 1 µM
EC50 (L. donovani amastigotes): 79.4 nM
solubility (FaSSIF solubility): < 1 µg/mL
Cli mouse [2]: 5.0 ml min^–1 g^–1

COc1ccccc1-c1n[nH]c2nc(NC3CCN(c4ccc(Cl)nn4)CC3)ncc12 [Compound 41]
solubility [3]: 4 µM (≈ 1.75 µg/mL)
EC50 (THP-1 cells): > 50100 nM
EC50 (L. donovani amastigotes): 158 nM
Cli mouse [2]: 3.4 ml min^–1 g^–1

COc1ccccc1-c1n[nH]c2nc(NC3CCN(C(=O)CC4CC4)CC3)ncc12 [Compound 42]
EC50 (THP-1 cells): 39800 nM
solubility at 1 h [1]: 22 µM (≈ 8.94 µg/mL)
EC50 (L. donovani amastigotes): 316 nM
solubility (FaSSIF solubility): < 1 µg/mL
Cli mouse [2]: 1.6 ml min^–1 g^–1

O=C(CC1CC1)N1CCC(Nc2ncc3c(C4CCOCC4)n[nH]c3n2)CC1 [Compound 44]
EC50 (THP-1 cells): > 50100 nM
solubility at 1 h [1]: ≥ 496 µM
EC50 (L. donovani amastigotes): 7940 nM
Cli mouse [2]: 0.8 ml min^–1 g^–1

O=C(Cc1ccc(F)c(F)c1)N1CCC(Nc2ncc3c(C4CCOCC4)n[nH]c3n2)CC1 [Compound 47]
EC50 (THP-1 cells): > 50100 nM
solubility at 1 h [1]: ≥ 429 µM
EC50 (L. donovani amastigotes): 1000 nM
Cli mouse [2]: 3.1 ml min^–1 g^–1

O=C(Cc1ccc(F)c(F)c1)N1CCC(Nc2ncc3c(N4CCOCC4)n[nH]c3n2)CC1 [Compound 48]
inhibition at 10 µM (p38α MAPK): > 40%
% Suppression of parasite load (L. donovani; 30 mg kg^–1 b.i.d. for 5 days PO): 60%
% Suppression of parasite load (L. donovani; 100 mg kg^–1 b.i.d. for 5 days PO): 98%
minimum efficacious dose (L. donovani; mouse model of VL): 100 mg kg^–1
inhibition at 10 µM (p38β MAPK; [6]): > 40%
IC50 (p38β MAPK; full IC50 curve): 550 nM
AUC [4]: 20900 ng·h/mL
Cmax [4]: 5760 ng/mL
Tmax [4]: 1 h
inhibition at 10 µM (ERK8; [6]): > 40%
IC50 (ERK8; full IC50 curve): 110 nM
inhibition at 10 µM (CDK2): > 40%
Cmax ([5]; blood, 10 mg kg^–1): 229 ng/mL
Tmax ([5]; blood, 10 mg kg^–1): 0.67 h
AUC(0-t) ([5]; blood, 10 mg kg^–1, read-out: AUC (0-Tlast)): 488 ng·h/mL
Cmax ([5]; blood, 100 mg kg^–1): 5520 ng/mL
Tmax ([5]; blood, 100 mg kg^–1): 6 h
AUC(0-t) ([5]; blood, 100 mg kg^–1, read-out: AUC (0-Tlast)): 50600 ng·h/mL
Cmax ([5]; blood, 300 mg kg^–1): 6760 ng/mL
Tmax ([5]; blood, 300 mg kg^–1): 6.67 h
increase in AUC(0-Tlast) [5, 7]: 1.7 fold
increase in Cmax [5, 7]: 1.2 fold
AUC(0-t) ([5]; in vivo, 300 mg kg^–1, read-out: AUC (0-Tlast)): 84600 ng·h/mL
EC50 (THP-1 cells): > 50100 nM
solubility at 1 h [1]: ≥ 465 µM
EC50 (L. donovani amastigotes): 794 nM
solubility (FaSSIF solubility): 97 µg/mL (≈ 212 µM)
Cli mouse [2]: 1.6 ml min^–1 g^–1

Clc1ccc(N2CCC(Nc3ncc4c(C5CCOCC5)n[nH]c4n3)CC2)nn1 [Compound 49]
solubility ([3]; aqueous solution): 63 µM (≈ 26.1 µg/mL)
EC50 (THP-1 cells): > 50100 nM
EC50 (L. donovani amastigotes): 1580 nM

Clc1ccc(N2CCC(Nc3ncc4c(N5CCOCC5)n[nH]c4n3)CC2)nn1 [Compound 50]
% Suppression of parasite load (L. donovani; 25 mg kg^–1 b.i.d. for 5 days PO): 17%
% Suppression of parasite load (L. donovani; 50 mg kg^–1 b.i.d. for 5 days PO): 57%
solubility ([3]; aqueous solution): 121 µM (≈ 50.3 µg/mL)
AUC [4]: 39800 ng·h/mL
Cmax [4]: 5230 ng/mL
Tmax [4]: 4 h
EC50 (THP-1 cells): > 50100 nM
EC50 (L. donovani amastigotes): 631 nM
solubility (FaSSIF solubility): 88 µg/mL (≈ 212 µM)
Cli mouse [2]: 0.6 ml min^–1 g^–1
